In patent US20040171090A1, “Anti-tumor antigen against HTLV-I tumor or antigen epitope thereof” (priority 2001, published 2004):
Peptide text beside a SMILES is read from it.

What was measured:
[1] = test system: HTLV-I-infected tumor cells, FPM1-V1AX; assay: Vaccine effect: splenic T cells of immunized nu/+ rats transferred to nu/nu rats given FPM1-V1AX, tumor volume; format: in vivo, rat; details: nu/+ rats immunized subcutaneously twice, two-week interval, 100 μg peptide and/or ISS-ODN
[2] = test system: HTLV-I-specific CTL cell lines; details: for cytotoxic activity of HTLV-I-specific CTL cell lines against target cells sensitized with peptide (FIG. 6): 15-24 mer peptides 10 μM, 37° C. 1 hour, release assay 6 hours; for cytotoxic activity of HTLV-I-specific CTL cell lines against target cells sensitized with peptide (FIG. 6) / cytotoxicity of long-term-cultured CTL cell lines against target cells sensitized with peptide (FIG. 7) / peptide concentration necessary to induce cytotoxic activity of the same extent as Tax 180-188: E/T 10; for cytotoxicity of long-term-cultured CTL cell lines against target cells sensitized with peptide (FIG. 7): peptides 10 μM; for peptide concentration necessary to induce cytotoxic activity of the same extent as Tax 180-188: G14 cells treated 1 hour with serially diluted peptide

Molecule | cytotoxic activity of HTLV-I-specific CTL cell lines against target cells sensitized with peptide (FIG. 6) ([2]; G14 cells) | further results
5′-TGACTGTGAACGTTCGAGATGA-3′ [ISS-ODN] | – | suppression effect on tumor proliferation by splenic T cells from immunized rats (tumor volume, FIG. 12) [1]: not recognized
CC[C@H](C)[C@H](NC(=O)[C@H](CCCCN)NC(=O)[C@H](Cc1ccc(O)cc1)NC(=O)[C@H](CC(C)C)NC(=O)[C@H](CC(C)C)NC(=O)[C@H](CCC(=O)O)NC(=O)[C@H](CCC(=O)O)NC(=O)[C@@H](NC(=O)[C@H](CCCNC(=N)N)NC(=O)[C@H](CCCCN)NC(=O)[C@H](Cc1ccc(O)cc1)NC(=O)[C@@H]1CCCN1C(=O)[C@@H](NC(=O)[C@H](CC(N)=O)NC(=O)[C@@H](NC(=O)[C@H](CC(C)C)NC(=O)[C@H](Cc1ccccc1)NC(=O)[C@H](C)NC(=O)CNC(=O)[C@H](CC(C)C)NC(=O)[C@H](CCC(N)=O)NC(=O)CN)[C@@H](C)O)C(C)C)[C@@H](C)CC)C(=O)N[C@@H](CO)C(=O)N[C@@H](CC(C)C)C(=O)O [Tax 177-200] | effectively dissolve | cytotoxicity of long-term-cultured CTL cell lines against target cells sensitized with peptide (FIG. 7) ([2]; G14 cells): notably dissolved
CC(C)C[C@H](NC(=O)[C@H](Cc1ccccc1)NC(=O)[C@H](C)N)C(=O)N[C@H](C(=O)N[C@@H](CC(N)=O)C(=O)N[C@H](C(=O)N1CCC[C@H]1C(=O)N[C@@H](Cc1ccc(O)cc1)C(=O)N[C@@H](CCCCN)C(=O)O)C(C)C)[C@@H](C)O [Tax 181-189] (H-AFLTNVPYK-OH; N-terminus and C-terminus assumed) | – | peptide concentration necessary to induce cytotoxic activity of the same extent as Tax 180-188 [2]: 1 µM
CC[C@H](C)[C@H](NC(=O)[C@H](CCCNC(=N)N)NC(=O)[C@H](CCCCN)NC(=O)[C@H](Cc1ccc(O)cc1)NC(=O)[C@@H]1CCCN1C(=O)[C@@H](NC(=O)[C@H](CC(N)=O)NC(=O)[C@@H](NC(=O)[C@H](CC(C)C)NC(=O)[C@H](Cc1ccccc1)NC(=O)[C@H](C)N)[C@@H](C)O)C(C)C)C(=O)N[C@@H](CCC(=O)O)C(=O)N[C@@H](CCC(=O)O)C(=O)N[C@@H](CC(C)C)C(=O)N[C@@H](CC(C)C)C(=O)O [Tax 181-195] | effectively dissolve | cytotoxicity of long-term-cultured CTL cell lines against target cells sensitized with peptide (FIG. 7) ([2]; G14 cells): notably dissolved
CC(C)C[C@H](NC(=O)[C@@H](N)Cc1ccccc1)C(=O)N[C@H](C(=O)N[C@@H](CC(N)=O)C(=O)N[C@H](C(=O)N1CCC[C@H]1C(=O)N[C@@H](Cc1ccc(O)cc1)C(=O)N[C@@H](CCCCN)C(=O)N[C@@H](CCCNC(=N)N)C(=O)O)C(C)C)[C@@H](C)O [Tax 182-190] (H-FLTNVPYKR-OH; N-terminus and C-terminus assumed) | – | peptide concentration necessary to induce cytotoxic activity of the same extent as Tax 180-188 [2]: 10 µM
LGAFLTNVP [Tax 179-187] | – | CTL sensitivity of target cells sensitized with 9 amino acid synthetic peptides (FIG. 8) ([2]; G14 cells, 9 mer peptides, same method as for the 15-24 mers): exhibited CTL sensitivity
Tax 17-40: partially overlapping synthetic peptide (15-24 mers), partial peptide in the Tax protein (VYVFGDCVQGDWCPISGGLCSARL) | low cytotoxic activity | –
Tax 33-56: partially overlapping synthetic peptide (15-24 mers), partial peptide in the Tax protein (GGLCSARLHRHALLATCPEHQITW) | low cytotoxic activity | –
Tax 81-104: partially overlapping synthetic peptide (15-24 mers), partial peptide in the Tax protein (QRTSKTLKVLTPPITHTTPNIPPS) | low cytotoxic activity | –
Tax 97-120: partially overlapping synthetic peptide (15-24 mers), partial peptide in the Tax protein (TTPNIPPSFLQAMRKYSPFRNGYM) | low cytotoxic activity | –
